Assay results: patent US20060263895A1, “Method for monitoring the stereoselectivity and relative rate of organic chemical reactions” (priority 2005, published 2006)

Key:
[1] = biological target: T1, alcohol dehydrogenase from horse liver (HLADH) (Equus caballus, UniProt P00327); assay: HLADH relative velocity (enantioselectivity) and Michaelis-Menten kinetics with 1,2-propanediol; assay type: biochemical; conditions: for Km / Vmax: HLADH; for Km: 7.2 mM NAD+, pH 8.8, 25° C.; for Vmax: 0.049 U
T1 construct: purchased; host or cells: equine liver
Description: 1. HLADH: The enantioselectivity of […] was estimated from the ratios of the initial velocities of (R)— vs. (S)-1,2-propanediol at fixed concentrations between 4.0 and 100 mM at 25° C. Each velocity measurement was made in duplicate. The assay cuvette contained the following: 7.2 mM NAD+ (33 μL from a 220 mM stock), 0.049 U of HLADH, and various concentrations of either the (R)— or (S)-enantiomer of 1,2-propanediol. In all cases, the final volume was adjusted to 1 mL using 50 mM sodium pyrophosphate buffer, pH 8.8.
(§1) Indeed, this was confirmed by the determination of Km's for each antipode of 1,2-propanediol for each enzyme. For each antipodal diol, the same data as were used to survey dehydrogenase enantioselectivity, as a function of diol concentration, were plotted in Michaelis-Menten fashion, as v0 vs. [S] (FIGS. 3 and 4). For each dehydrogenase, the data curve for (R)-1,2-propanediol is shown by -▪-, and those for the (S)-enantiomer by -●-. In all four cases, the data were processed by […], least squares fitting to a hyperbolic function. The resulting curve fits and best fit hyperbolic equations are presented above.

[2] = biological target: T2, alcohol dehydrogenase from Thermoanaerobium brockii (TBADH) (Thermoanaerobacter brockii, UniProt P14941); assay: TBADH relative velocity (enantioselectivity) and Michaelis-Menten kinetics with 1,2-propanediol; assay type: biochemical; conditions: for Km / Vmax: TBADH; for Km: 2.2 mM NADP+, pH 8.8, 25° C.; for Vmax: 0.113 U
T2 construct: purchased
T2 sequence (P14941 1-352): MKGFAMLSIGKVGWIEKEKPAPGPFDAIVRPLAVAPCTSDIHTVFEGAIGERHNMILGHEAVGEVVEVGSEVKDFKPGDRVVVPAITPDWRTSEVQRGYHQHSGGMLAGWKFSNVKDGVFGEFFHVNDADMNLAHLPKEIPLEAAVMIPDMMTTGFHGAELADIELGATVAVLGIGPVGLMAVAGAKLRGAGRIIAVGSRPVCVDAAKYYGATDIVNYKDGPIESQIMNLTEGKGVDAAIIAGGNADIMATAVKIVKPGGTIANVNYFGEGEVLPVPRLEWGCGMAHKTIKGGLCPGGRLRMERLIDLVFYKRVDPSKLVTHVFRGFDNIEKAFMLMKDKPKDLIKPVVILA
Description: 2. TBADH: The enantioselectivity of […] was estimated from the ratios of the initial velocities of (R)— vs. (S)-1,2-propanediol at fixed concentrations between 3.0 and 80 mM at 25° C. Each velocity measurement was performed in triplicate. The assay cuvette contained the following: 2.2 mM NADP+ (10 μL from a 220 mM stock), 0.113 U of TBADH, and various concentrations of either (R) or (S)-enantiomer of 1,2-propanediol. In all cases, the final volume was adjusted to 1 mL using 50 mM sodium pyrophosphate buffer, pH 8.8.
as §1

[3] = [total 1,2-propanediol] in aqueous ISES layer by 1H NMR; conditions: for [diol] (mM) @ 15 min: aqueous ISES layer, 1H NMR, t = 15 min; for Norm.: normalized to the catalyst derived from salen 3b (rate 1.0)
Description: The concentration of 1,2-propanediol in the aqueous layer was estimated under typical ISES conditions using 1H NMR spectroscopy. The bilayer was prepared as usual for double cuvette-ISES (Section V), but for the substitution of D2O for H2O in the buffer, and the elimination of the dehydrogenase enzymes. After 15 min, the aqueous layer (300 μL of 500 μL total) was withdrawn and mixed with a fresh solution of imidazole of known concentration (also 300 μL in D2O), as an internal concentration standard. Accumulation of the 1H NMR spectrum, followed by integration and quantitation, provided an experimental measure of [total diol] in the aqueous reporting layer at t=15 minutes for the catalyst under investigation. The observed diol concentrations for ten catalysts examined in this way are collected in Table S6, below. These have been normalized to the value for the catalyst derived from salen 3b (arbitrarily assigned a rate of 1.0).

[4] = Double cuvette-ISES (in situ enzymatic screening) of Co(III)-salen mediated HKR of (±)-propylene oxide; conditions: bilayer of pH 8.6 buffer over 7.2 M epoxide in CHCl3, 0.25 mol % catalyst, 15-35 min; + = (S), − = (R)
Description: Aqueous reporting layers. containing TBADH/NADP+ (cuvette 1) and HLADH/NAD+ (cuvette 2), respectively, are then added. The increase in absorbance at 340 nm can be followed for several such sets in parallel by UV-vis spectrophotometry. The kinetic data are then used to make the double-cuvette ISES predictions.
A general procedure for double cuvette-ISES to estimate both enantioselectivities and relative rates for an array of catalysts being screened in parallel is presented below. The hydrolytic kinetic resolution (HKR) of (±) propylene oxide was chosen as model reaction.
Typically, quartz cuvettes with one cm light paths and with nominal one mL volumes were used. For each catalyst, a two cuvette screen was performed, with cuvette A containing HLADH, as (S)-propanediol-selective reporting enzyme, and cuvette B containing TBADH, as a (R)-propanediol-selective reporting enzyme. For each cuvette, the final volume was 800 μL (300 μL of organic layer; 500 μL of aqueous layer).
Both cuvettes A and B had the following composition: 150 μL (2.15 mmol) of (±)-propylene oxide (7.2 M in organic layer), 150 μL of CHCl3 and 0.25 mol % Co(III)-salen catalyst. The total organic layer volume was maintained as 300 μL in all catalyst screens.
(i) Cuvette A: 0.35 U HLADH (17.6 μL from a stock solution (0.02U/μL)), 7.2 mM β-NAD+(16.5 μL from a 220 mM stock) and 465.8 μL of 50 mM sodium pyrophosphate buffer, pH 8.8. The final pH was 8.6.
(ii) Cuvette B: 0.35 U TBADH (15.8 μL from a stock solution (0.022U/μL)) of, 2.2 mM β-NADP+ (5 μL from a 220 mM stock) and 479.5 μL of 50 mM sodium pyrophosphate buffer, pH 8.8. The final pH was 8.6. The total volume of the aqueous layer was maintained as 500 μL in both cuvettes in all ISES experiments.
C. Step by Step Protocol: A catalyst stock solution (22 μmol of catalyst in 620 μL CHCl3) was made up in a 1.5 ml microcentrifuge tube, and stored on ice, along with a stock of (±)-propylene oxide, in a separate tube. The organic layers were prepared by briefly vortexing 150 μL (5.4 μmol, 0.25 mol %) of the catalyst stock in CHCl3 with 150 μL (2.15 mmol) of (±)-propylene oxide in iced microcentrifuge tubes. These were loaded into 1 mL quartz cuvettes using precooled (refrigerator), disposable 1 mL syringes. The aqueous layers were then layered on top of the organic layers, by syringe, down the walls of the cuvette.

[5] = HKR of (±)-propylene oxide under standard neat 'Jacobsen conditions' (NMR conversion, chiral HPLC ee); conditions: for % ee (HPLC) / NMR conv. (time): loading 0.25 mol %; for % ee of the 1,2-propanediol product, as observed by chiral HPLC (lower number): neat propylene oxide, 0.55 equiv. H2O, 0.25 mol % catalyst, 3 h reaction time; for NMR conv. (time): 3 h
Description: Salens in the fully synthetic, 42 member focused library that led to catalysts with appreciable activity, as indicated by double cuvette-ISES, were also evaluated ‘outside of the cuvette,’ under conditions more typically employed in HKR reactions. Specifically, these Co(III)-salen catalysts were evaluated in the HKR of (±)-propylene oxide, under neat conditions, similar to those described by Jacobsen and coworkers. Reactions were arbitrarily stopped after 3 hours, to obtain the enantiopurity of the 1,2-propanediol product at relatively early reaction times, for comparison with ISES predictions.
A typical procedure follows: To the Co(III)-salen catalyst derived from 7e (5.4 mg, 5.4 μmol, 0.25 mol %) and (±)-propylene oxide (125 mg, 2.15 mmol) at 0° C., was added water (21 μL, 1.18 mmol, 0.55 equiv.). The reaction mixture was securely capped, and allowed to warm to room temperature and stirred, most commonly for a total of 3 hours. Percent conversion at 3 hours was evaluated by 1H NMR of an aliquot (cooled to 0° C. for the transfer), in CDCl3. In most of these cases, the conversion was low enough after 3 hours, that the unreacted epoxide (bp 32° C.) was of relatively low ee, and was therefore removed by evaporation under aspirator vacuum. When the conversion was less than 5% by NMR after 3 hours, reactions were continued for longer times.
Upon termination of the reaction, the diol product was isolated by Kugelrohr distillation (˜120° C.-oven temp; 0.1 torr). To determine ee, the isolated diol was derivatized using p-bromobenzoyl imidazole (2.2 equiv.) in THF in the presence of NaH (4 equiv.) at room temperature for 5 min. The bis(p-bromobenzoate) esters obtained following sequential washes with 1 N HCl and saturated sodium bicarbonate, were of sufficient purity to be used directly for chiral HPLC analysis (Chiralcel OD, 99% […]). [drawing 23] [drawing 24] [drawing 25] [drawing 26] [drawing 27]

[6] = reaction stopped at the time given (mostly 3 h), + = (S), − = (R)

T1 sequence (P00327 whole entry): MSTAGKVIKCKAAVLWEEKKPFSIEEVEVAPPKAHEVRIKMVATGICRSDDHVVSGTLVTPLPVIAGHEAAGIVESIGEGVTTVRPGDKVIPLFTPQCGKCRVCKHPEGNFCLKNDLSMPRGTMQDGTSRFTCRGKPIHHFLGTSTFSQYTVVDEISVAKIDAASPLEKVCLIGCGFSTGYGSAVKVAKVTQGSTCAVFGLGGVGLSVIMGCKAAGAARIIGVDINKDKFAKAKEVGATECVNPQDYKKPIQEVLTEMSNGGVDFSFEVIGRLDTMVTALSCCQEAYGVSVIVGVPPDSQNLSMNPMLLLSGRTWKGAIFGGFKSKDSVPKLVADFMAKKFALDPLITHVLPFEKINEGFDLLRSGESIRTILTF

CC(O)CO (centres unmarked) [1,2-Propanediol]
vS/vR of HLADH ([1]; 1,2-propanediol conc. 4 mM, 25° C.): 4.0 | vS/vR of HLADH ([1]; 1,2-propanediol conc. 8 mM): 3.6 | vS/vR of HLADH ([1]; 1,2-propanediol conc. 12 mM): 2.8 | vS/vR of HLADH ([1]; 1,2-propanediol conc. 16 mM): 2.4 | vS/vR of HLADH ([1]; 1,2-propanediol conc. 20 mM): 2.7 | vS/vR of HLADH ([1]; 1,2-propanediol conc. 30 mM): 2.8 | vS/vR of HLADH ([1]; 1,2-propanediol conc. 40 mM): 3.0 | vS/vR of HLADH ([1]; 1,2-propanediol conc. 50 mM): 2.7 | vS/vR of HLADH ([1]; 1,2-propanediol conc. 100 mM): 2.6 | vR/vS of TBADH ([2]; 1,2-propanediol conc. 3 mM, 25° C.): 10.8 | vR/vS of TBADH ([2]; 1,2-propanediol conc. 6 mM): 8.9 | vR/vS of TBADH ([2]; 1,2-propanediol conc. 10 mM): 9.9 | vR/vS of TBADH ([2]; 1,2-propanediol conc. 20 mM): 10.6 | vR/vS of TBADH ([2]; 1,2-propanediol conc. 30 mM): 9.1 | vR/vS of TBADH ([2]; 1,2-propanediol conc. 40 mM): 8.4 | vR/vS of TBADH ([2]; 1,2-propanediol conc. 50 mM): 9.0 | vR/vS of TBADH ([2]; 1,2-propanediol conc. 60 mM): 9.1 | vR/vS of TBADH ([2]; 1,2-propanediol conc. 80 mM): 8.6

C[C@H](O)CO [(S)-1,2-propanediol]
Km [1]: 16 ± 1 mM | Vmax [1]: 819±20 mAbs min−1 | Km [2]: 23 ± 4 mM | Vmax [2]: 60±4 mAbs min−1

CC(C)(C)c1cccc(C=NC[C@H](Cc2ccccc2)N=Cc2cccc(C(C)(C)C)c2O)c1O [Salen 3b, N,N′-Bis(3′-tert-butylsalicylidene)-(1S)-benzyl-1,2-ethylenediamine]
[diol] (mM) @ 15 min [3]: 96 mM | Norm. [3]: 1.0 | % ee of the 1,2-propanediol product, as predicted by double-cuvette ISES (upper number) [4]: +70 % ee | % ee (HPLC) [5, 6]: +57 (S) % ee | % ee of the 1,2-propanediol product, as observed by chiral HPLC (lower number) ([5]; + = (S), − = (R)): +57 % ee

CC(C)(C)c1cccc(C=NC[C@H](Cc2ccc3ccccc3c2)N=Cc2cccc(C(C)(C)C)c2O)c1O [Salen 5b, N,N′-Bis(3′-tert-butylsalicylidene)-(1S)-(β-naphthylmethyl)-1,2-ethylenediamine]
[diol] (mM) @ 15 min [3]: 75.5 mM | Norm. [3]: 0.79 | % ee of the 1,2-propanediol product, as predicted by double-cuvette ISES (upper number) [4]: +65 % ee | NMR conv. (time) [5]: 45 (3 h) % | % ee (HPLC) [5, 6]: +68 (S) % ee | % ee of the 1,2-propanediol product, as observed by chiral HPLC (lower number) ([5]; + = (S), − = (R)): +68 % ee

C[C@@H](O)CO [(R)-1,2-propanediol]
Km [1]: 25 ± 2 mM | Vmax [1]: 355±9 mAbs min−1 | enantiomeric preference of TBADH [2]: significant preference | Km [2]: 17 ± 2 mM | Vmax [2]: 487±18 mAbs min−1

CC(C)(C)c1cc(C=NC[C@@H](N=Cc2cc(C(C)(C)C)cc(C(C)(C)C)c2O)c2ccccc2)c(O)c(C(C)(C)C)c1 [Salen 2a, N,N′-Bis(3′,5′-di-tert-butylsalicylidene)-(1S)-phenyl-1,2-ethylenediamine]
[diol] (mM) @ 15 min [3]: 27.5 mM | Norm. [3]: 0.29 | % ee of the 1,2-propanediol product, as predicted by double-cuvette ISES (upper number) [4]: −97 % ee | NMR conv. (time) [5]: 17 (3 h) % | % ee (HPLC) [5, 6]: −93 (R) % ee | % ee of the 1,2-propanediol product, as observed by chiral HPLC (lower number) ([5]; + = (S), − = (R)): −93 % ee

N,N′-Bis(1′-hydroxy-2′-naphthylidene)-[1R-(1α,2α,5α)]-2-amino-7,7-dimethyl-2-bicyclo[3.3.1]heptane-ethanamine [Salen 1d]
[diol] (mM) @ 15 min [3]: 91 mM | Norm. [3]: 0.95 | % ee of the 1,2-propanediol product, as predicted by double-cuvette ISES (upper number) [4]: +75 % ee | % ee (HPLC) ([5]; @1 h): +81@1 h, % ee | % ee (HPLC) ([5]; @3 h): +67@3 h (S) % ee | % ee of the 1,2-propanediol product, as observed by chiral HPLC (lower number) ([5]; + = (S), − = (R)): +81 % ee
